Drawing on patent EP4800015A1, “AZABICYCLO DERIVATIVE AND PREPARATION METHOD THEREFOR, AND USE” (Zhejiang Hisun Pharmaceutical Co., Ltd., priority 2023, dated 2025), this text covers IC50 for 7 compounds.

Molecules are shown by their SMILES. Bounds are passed on as bounds.

For one assay, the target named is T1, recombinant human WRN (Homo sapiens, UniProt Q14191).
T1 construct: purchased BPS 101264
Nature of the assay: Inhibition of WRN enzyme activity (ATPase), ADP-Glo Kinase Assay. The class given is biochemical. As to conditions: WRN protein 5 nM, Flap 0.1 nM, ATP 30 µM; read-out: IC50. Summed up:
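ATPase activity was measured by ADP-Glo luminescence after a 10-min room-temperature reaction with 30 µM ATP and 0.1 nM Flap26 oligonucleotide substrate. The 5 nM WRN had first been exposed to compound (0.004–1000 nM) for 15 min in pH 7.5 Tris buffer with 2 mM MgCl2. IC50 values came from log-concentration regression against the DMSO control.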
For orientation: In ADP-Glo the light output rises with the ADP produced.

The next assay has as its system SW48 cells. Description: Inhibition of SW48 cell proliferation (CellTiter-Glo). The class given is cell-based. To be noted: Homo sapiens; SW48 cells (MSI-H), 120 hours. How it is done:
The following method was used to determine the effect of the compounds of the present disclosure on SW48 cell proliferation. SW48 cells (MSI-H cells) were purchased from American ATCC cell bank and cultured in Leibovitz's L-15 medium (Gibco, catalog No. 11415064) containing 10% fetal bovine serum, 100 U penicillin, and 100 µg/mL streptomycin. Cell viability was determined by CellTiter-Glo® Luminescent Cell Viability Assay kit (Promega, catalog No. G7573).
The experiment was performed according to the steps of the kit manual, which is briefly described as follows: test compounds were first dissolved in DMSO to prepare 10 mM stock solutions, and then diluted with medium to prepare test samples, with final compound concentrations ranging from 10000 nM to 1.52 nM. Cells in logarithmic growth phase were seeded into 96-well cell culture plates at a density of 500 cells per well and cultured overnight at 37 °C in an air incubator, then test compounds were added and cultivation continued for 120 hours. After the cultivation was completed, 40 µL of CellTiter-Glo detection reagent was added to each well, shaken for 5 minutes, and then left to stand for 10 minutes. Luminescence values of each well were read on a microplate reader using Luminescence mode. The percentage inhibition at each concentration point was calculated by comparison with the control group (0.1% DMSO), and then IC50 values for the compounds for inhibition of cell proliferation were obtained using nonlinear regression analysis of compound concentration logarithm versus inhibition rate in GraphPad Prism 9 software, as shown in Table 2.
The IC50 value results of the compounds of the present disclosure are represented by A, wherein "A" indicates 1 nM < IC50 ≤ 100 nM. Table 2 IC50 data for inhibition of SW48 cell proliferation by the compounds of the present disclosure

T1 sequence (Q14191 whole entry): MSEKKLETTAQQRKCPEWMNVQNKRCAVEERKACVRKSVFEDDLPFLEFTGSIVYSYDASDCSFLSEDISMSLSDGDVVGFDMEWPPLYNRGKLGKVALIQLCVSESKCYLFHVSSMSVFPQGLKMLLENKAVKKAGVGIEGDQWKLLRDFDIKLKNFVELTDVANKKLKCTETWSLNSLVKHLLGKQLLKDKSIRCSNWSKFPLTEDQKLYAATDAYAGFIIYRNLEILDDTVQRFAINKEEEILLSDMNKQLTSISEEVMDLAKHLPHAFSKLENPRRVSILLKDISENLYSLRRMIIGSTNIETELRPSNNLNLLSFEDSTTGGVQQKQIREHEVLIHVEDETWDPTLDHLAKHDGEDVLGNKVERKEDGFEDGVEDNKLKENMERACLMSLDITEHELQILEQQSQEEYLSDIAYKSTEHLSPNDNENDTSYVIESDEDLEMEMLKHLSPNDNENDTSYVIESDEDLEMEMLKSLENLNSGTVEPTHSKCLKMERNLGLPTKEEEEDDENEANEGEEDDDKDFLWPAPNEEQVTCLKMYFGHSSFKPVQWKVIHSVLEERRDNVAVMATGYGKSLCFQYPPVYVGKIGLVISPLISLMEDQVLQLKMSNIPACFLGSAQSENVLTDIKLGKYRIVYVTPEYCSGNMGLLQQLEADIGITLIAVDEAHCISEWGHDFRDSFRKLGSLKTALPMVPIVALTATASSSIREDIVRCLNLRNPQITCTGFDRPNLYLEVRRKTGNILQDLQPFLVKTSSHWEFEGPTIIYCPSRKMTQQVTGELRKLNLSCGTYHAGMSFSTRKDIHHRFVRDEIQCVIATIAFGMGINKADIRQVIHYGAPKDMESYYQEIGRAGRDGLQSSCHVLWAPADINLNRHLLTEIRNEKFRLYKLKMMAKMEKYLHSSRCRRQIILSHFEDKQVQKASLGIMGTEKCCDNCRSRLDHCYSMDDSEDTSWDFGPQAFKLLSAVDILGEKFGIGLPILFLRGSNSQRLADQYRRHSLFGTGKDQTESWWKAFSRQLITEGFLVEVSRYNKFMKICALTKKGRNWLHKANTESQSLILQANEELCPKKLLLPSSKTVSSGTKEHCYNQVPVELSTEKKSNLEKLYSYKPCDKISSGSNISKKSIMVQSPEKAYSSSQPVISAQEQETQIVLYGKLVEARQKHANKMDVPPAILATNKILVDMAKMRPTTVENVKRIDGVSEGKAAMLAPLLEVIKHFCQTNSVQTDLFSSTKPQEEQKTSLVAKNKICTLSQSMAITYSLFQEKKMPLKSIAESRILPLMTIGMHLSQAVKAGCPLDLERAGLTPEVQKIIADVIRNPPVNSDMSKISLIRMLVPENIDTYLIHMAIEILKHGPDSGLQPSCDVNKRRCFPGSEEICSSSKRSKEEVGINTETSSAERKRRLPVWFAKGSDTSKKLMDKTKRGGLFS

With `CCc1c(N2CCN(C(=O)c3ncnc(C)c3O)CC2)c(=O)n2nc(C=C3CCC3)nc2n1CC(=O)Nc1ccc(C(F)(F)F)cc1Cl` [Example 33, N-(2-chloro-4-(trifluoromethyl)phenyl)-2-(2-(cyclobutylidenemethyl)-5-ethyl-6-(4-(5-hydroxy-6-methylpyrimidine-4-carbonyl)piperazin-1-yl)-7-oxo-[1,2,4]triazolo[1,5-a]pyrimidin-4(7H)-yl) acetamide], the IC50 at recombinant human WRN is less than 1 nM; with SW48 cells it was 1 to 100 nM.
For `CCc1c(N2CCN(C(=O)c3ncncc3O)CC2)c(=O)n2nc(-c3ccc4c(c3)CCO4)nc2n1CC(=O)Nc1ccc(C(F)(F)F)cc1Cl` [Example 151, N-(2-chloro-4-(trifluoromethyl)phenyl)-2-(2-(2,3-dihydrobenzofuran-5-yl)-5-ethyl-6-(4-(5-hydroxypyrimidine-4-carbonyl)piperazin-1-yl)-7-oxo-[1,2,4]triazolo[1,5-a]pyrimidin-4(7H)-yl)acetamide] the same measures were 1 to 100 nM and 1 to 100 nM.
As for `CCc1c(N2CCN(C(=O)c3ncnc(C)c3O)CC2)c(=O)n2nc(C3=CCC4(CC3)CC4)nc2n1CC(=O)Nc1ccc(S(F)(F)(F)(F)F)cc1Cl` [Example 174, N-(2-chloro-4-(pentafluoro-λ^6-sulfaneyl)phenyl)-2-(5-ethyl-6-(4-(5-hydroxy-6-methylpyrimidine-4-carbonyl)piperazin-1-yl)-7-oxo-2-(spiro[2.5]oct-5-en-6-yl)-[1,2,4]triazolo[1,5-a]pyrimidin-4(7 H)-yl)acetamide], the IC50 at recombinant human WRN and with SW48 cells was 1 to 100 nM throughout.
Turning to `CCc1c(N2CCN(C(=O)c3ncnc(C)c3O)CC2)c(=O)n2nc(C3=CCC4(CC3)COC4)nc2n1CC(=O)Nc1ccc(S(F)(F)(F)(F)F)cc1` [Example 176, 2-(5-ethyl-6-(4-(5-hydroxy-6-methylpyrimidine-4-carbonyl)piperazin-1-yl)-7-oxo-2-(2-oxaspiro[3.5]non-6-en-7-yl)-[1,2,4]triazolo[1,5-a]pyrimidin-4(7H)-yl)-N-(4-(pentafluoro-λ^6-sulfaneyl)phenyl)acetamide], the 50% inhibitory concentration (IC50) at recombinant human WRN and in the assay with SW48 cells was 1 to 100 nM throughout.
`CCc1c(N2CCN(C(=O)c3ncccc3O)CC2)c(=O)n2nc(C=C3CCC3)nc2n1CC(=O)Nc1ccc(S(F)(F)(F)(F)F)cc1` [Example 52, 2-(2-(cyclobutylidenemethyl)-5-ethyl-6-(4-(3-hydroxypicolinoyl)piperazin-1-yl)-7-oxo-[1,2,4]triazolo[1,5-a]pyrimidin-4(7H)-yl)-N-(4-(pentafluoro-λ^6-sulfaneyl)phenyl)acetamide]: the half-maximal inhibitory concentration (IC50) is less than 1 nM on recombinant human WRN and 1 to 100 nM in the assay on SW48 cells.
Taken in the same sequence, the figures for `CCc1c(N2CCN(C(=O)c3ncnc(C)c3O)CC2)c(=O)n2nc(-c3cc4ccccc4o3)nc2n1CC(=O)Nc1ccc(S(F)(F)(F)(F)F)cc1` [Example 96, 2-(2-(benzofuran-2-yl)-5-ethyl-6-(4-(5-hydroxy-6-methylpyrimidine-4-carbonyl)piperazin-1-yl)-7-oxo-[1,2,4]triazolo[1,5-a]pyrimidin-4(7H)-yl)-N-(4-(pentafluoro-λ^6-sulfaneyl)phenyl)acetamide] were 1 to 100 nM and 1 to 100 nM.
On to `CCc1c(N2CCN(C(=O)c3nc(C)ccc3O)CC2)c(=O)n2nc(-c3ccc4c(c3)CCO4)nc2n1CC(=O)Nc1ccc(C(F)(F)F)cc1Cl` [Example 105, N-(2-chloro-4-(trifluoromethyl)phenyl)-2-(2-(2,3-dihydrobenzofuran-5-yl)-5-ethyl-6-(4-(3-hydroxy-6-methylpicolinoyl)piperazin-1-yl)-7-oxo-[1,2,4]triazolo[1,5-a]pyrimidin-4(7H)-yl)a cetamide], for which the IC50 on recombinant human WRN and in the assay with SW48 cells was 1 to 100 nM throughout.

By IC50 is commonly meant the concentration that inhibits the measured activity by half.
